Data published in article PMC5738391, “Three classes of ligands each bind to distinct sites on the orphan G protein-coupled receptor GPR84” (Scientific Reports, 2017).

Experiments:
[1] = tested on: patients with ulcerative colitis; set-up: method as in doi:10.1093/ecco-jcc/jjx002.734; conditions: cited from earlier work
wild type GPR84 = tested on: wild type GPR84; set-up: method as in PMID 25425658; conditions: cited from earlier work
[2] = target: GPR84-Cys^352Ile Gαi2 fusion protein (Homo sapiens, UniProt Q9NQS5); assay: [3H]G9543 radioligand binding (saturation and displacement), GPR84-Cys352Ile Gαi2 fusion protein; set-up: Cys352Ile Gαi2 (fusion partner, same polypeptide); expressed in transfected cells; host or cells: membranes of Flp-In T-REx 293 cells, doxycycline-induced; conditions: displacement assay
Protocol: [^3H]G9543 is an analog of compounds 104, 107 and 161 with the same characteristic 2-(substituted-alkoxy)-9-substituted-6,7-dihydro-pyrimido[6,1-a]isoquinolin-4-one chemotype. […] Binding was initiated by the addition of membranes (5 µg of protein per tube). All assays were performed at 25 °C for 1 h before termination by the addition of ice-cold phosphate-buffered saline and vacuum filtration through GF/C glass filters using a 24-well Brandel cell harvester (Alpha Biotech, Glasgow, UK). Each reaction tube was washed three times with ice-cold PBS. The filters were allowed to dry for 2–3 h and then placed in 3 ml of Ultima Gold^TM XR. Radioactivity was quantified by liquid scintillation spectrometry. Specific binding was defined as the difference between binding detected in the presence and absence of 1 µM compound 104.
(§1) All data are presented as means ± SEM of at least three independent experiments. Data analysis and curve fitting was carried out using the GraphPad Prism software package version 5.0b (GraphPad, San Diego). For functional assays the concentration-response data were plotted on a log axis, with the untreated vehicle control plotted at 1 log unit lower than the lowest ligand concentration, and fitted to a three parameter sigmoidal curve with the Hill slope constrained to equal 1. In case of inhibition experiments with antagonists an equivalent analysis was followed to fit an inverse sigmoidal curve. To perform the statistical analysis of curve parameters, data from multiple experiments were fitted independently and resulting curve fit values were analysed with indicated tests. For radioligand binding data, saturation binding curves were generated by fitting the specific binding, which was obtained by subtracting non-specific from total binding, to a one site specific binding model that allows calculation of Kd values for the radioligand at wild type and mutant receptors. To determine affinity of unlabelled ligands, data obtained in displacement assays were fit to an inverse three parameter sigmoidal curve constrained by radioligand affinity and concentration to allow for Ki calculation.

[3] = target: T1, human GPR84 (FLAG-hGPR84-eYFP) (Homo sapiens, UniProt Q9NQS5); assay: [35S]GTPγS binding, membranes of cells expressing FLAG-hGPR84-eYFP; type: biochemical
T1 construct: expressed in transfected cells
Protocol: Membranes were generated from Flp-In T-REx HEK293 cells treated with 100 ng/mL doxycycline to induce expression of the receptor construct of interest. Cells were washed with ice-cold phosphate-buffered saline, removed from dishes by scraping and centrifuged at 3000 rpm for 5 min at 4 °C. Pellets were resuspended in TE buffer (10 mM Tris-HCl, 0.1 mM EDTA; pH 7.5) containing a protease inhibitor mixture (Roche Applied Science, West Sussex, UK) and homogenized with a 5 ml hand-held homogenizer. This material was centrifuged at 1500 rpm for 5 min at 4 °C and the supernatant was further centrifuged at 50000 rpm for 45 min at 4 °C. The resulting pellet was resuspended in TE buffer and protein content was assessed using a BCA protein assay kit (Pierce, Fisher Scientific, Loughborough, UK).
The reaction was then initiated with addition of [^35S]GTPγS (50 nCi per tube), and the reaction was terminated after 45 minutes incubation at 30 °C by rapid filtration through GF/C glass filters using a 24-well Brandel cell harvester (Alpha Biotech, Glasgow, UK). […] Dried filters were added to 3 mL of Ultima Gold^TM XR (PerkinElmer Life Sciences, Beaconsfield, UK) and [^35S]GTPγS binding was determined by liquid scintillation spectrometry.
as §1, with “For functional assays the concentration-response data were plotted on a log axis, with the untreated vehicle control plotted at 1 log unit lower than the lowest ligand concentration, and fitted to a three parameter sigmoidal curve with the Hill slope constrained to equal 1.” left out

Sequence of GPR84-Cys^352Ile Gαi2 fusion protein (Q9NQS5 2-396): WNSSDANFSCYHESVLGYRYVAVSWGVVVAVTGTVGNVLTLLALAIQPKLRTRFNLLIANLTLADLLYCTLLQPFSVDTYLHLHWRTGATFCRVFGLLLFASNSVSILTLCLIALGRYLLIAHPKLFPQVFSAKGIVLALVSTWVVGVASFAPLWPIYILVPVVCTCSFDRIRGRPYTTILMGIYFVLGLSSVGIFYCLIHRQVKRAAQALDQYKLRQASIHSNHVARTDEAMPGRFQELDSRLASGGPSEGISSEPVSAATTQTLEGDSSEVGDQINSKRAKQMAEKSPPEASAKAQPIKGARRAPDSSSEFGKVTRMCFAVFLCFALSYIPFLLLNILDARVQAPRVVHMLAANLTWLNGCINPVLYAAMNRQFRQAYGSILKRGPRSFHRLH
T1 sequence (Q9NQS5 whole entry): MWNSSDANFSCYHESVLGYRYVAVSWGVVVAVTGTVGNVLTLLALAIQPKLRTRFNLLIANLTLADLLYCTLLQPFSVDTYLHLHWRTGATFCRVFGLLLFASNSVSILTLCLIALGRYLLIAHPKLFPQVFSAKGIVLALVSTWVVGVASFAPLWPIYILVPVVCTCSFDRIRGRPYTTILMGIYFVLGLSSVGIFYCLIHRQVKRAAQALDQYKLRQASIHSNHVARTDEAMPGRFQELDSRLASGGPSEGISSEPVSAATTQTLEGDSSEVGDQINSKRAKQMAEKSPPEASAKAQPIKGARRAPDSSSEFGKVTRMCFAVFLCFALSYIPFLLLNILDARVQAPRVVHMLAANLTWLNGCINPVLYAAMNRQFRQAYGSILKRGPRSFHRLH

O=c1nc(OC[C@@H]2COCCO2)cc2n1CCc1cc(C#CC3CC3)ccc1-2 [GLPG1205]
efficacy in patients with ulcerative colitis ([1]; 12 weeks of chronic dosing): did not show efficacy
safety and tolerability ([1]; patients with ulcerative colitis): safe and tolerable

CCCCCCCCCCN [decylamine]
response of wild type GPR84 (wild type GPR84): failed to respond

O=c1nc(OC[C@H]2COCCO2)cc2n1CCc1cc(OCc3noc(C4CC4)n3)ccc1-2 [Compound 104, 9-(5-cyclopropyl-[1,2,4]oxadiazol-3-ylmethoxy)-2-((R)-1-[1,4]dioxan-2-ylmethoxy)-6,7-dihydro-pyrimido[6,1-a]isoquinolin-4-one]
ability to compete with [3H]G9543 binding [2]: competed fully and effectively
Ki ([2]; read-out: pKi, competition with [3H]G9543 (converted)): 1.86 nM
ability to limit [35S]GTPγS binding induced by EC80 concentrations of C10 (50 μM), embelin (3 μM) and DIM (5 μM) [3]: more potent than 161
